Measured values as given in US9573899B2, “USP7 inhibitor compounds and methods of use” (Genentech, Inc., priority 2015, dated 2017).

Tests used:
USP5 = target: T1, USP5 (Homo sapiens, UniProt P45974); test: Ub-Rho110 DUB assay, Table 2, USP5
T1 sequence (P45974 1-858): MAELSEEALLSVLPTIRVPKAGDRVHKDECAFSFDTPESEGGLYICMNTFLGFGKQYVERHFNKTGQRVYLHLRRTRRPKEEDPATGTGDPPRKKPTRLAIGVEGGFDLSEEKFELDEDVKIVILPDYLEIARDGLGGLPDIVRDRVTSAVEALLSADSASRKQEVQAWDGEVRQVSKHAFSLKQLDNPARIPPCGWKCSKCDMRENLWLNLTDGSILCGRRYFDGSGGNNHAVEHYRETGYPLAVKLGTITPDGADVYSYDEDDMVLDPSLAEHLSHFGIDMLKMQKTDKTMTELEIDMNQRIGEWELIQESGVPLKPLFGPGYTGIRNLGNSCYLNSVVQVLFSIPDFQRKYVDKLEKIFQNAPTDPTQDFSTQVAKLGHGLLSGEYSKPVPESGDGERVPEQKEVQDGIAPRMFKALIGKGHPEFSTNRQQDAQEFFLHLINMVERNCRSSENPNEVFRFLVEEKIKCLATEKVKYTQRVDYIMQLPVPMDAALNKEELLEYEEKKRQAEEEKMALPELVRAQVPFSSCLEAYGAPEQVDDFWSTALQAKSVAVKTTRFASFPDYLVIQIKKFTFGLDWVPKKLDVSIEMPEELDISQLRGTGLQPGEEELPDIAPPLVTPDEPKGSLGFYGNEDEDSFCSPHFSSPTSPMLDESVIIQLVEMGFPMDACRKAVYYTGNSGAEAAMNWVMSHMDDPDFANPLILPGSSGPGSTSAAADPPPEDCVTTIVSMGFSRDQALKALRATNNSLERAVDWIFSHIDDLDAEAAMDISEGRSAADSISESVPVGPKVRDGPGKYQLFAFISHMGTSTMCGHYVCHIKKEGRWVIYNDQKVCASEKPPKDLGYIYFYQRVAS

[1] = test system: colon cancer cell lines RKO and RKO-E6, and cervical cancer cell lines Vibo and SiHA; test: Incucyte cell proliferation in RKO, RKO-E6, Vibo and SiHA cells (FIG. 15); type: cell-based
Method: 2,500-5,000 cells were seeded in 1-well of a 96-well plate (Corning; 3904). The following day, the media was changed from normal (10%) to low serum (0.5%) containing vehicle (DMSO) or compounds. 16-24 h later FBS was added to each well to bring serum levels back to normal (10%). Cells were then allowed to grow for 2 days. All treatments were done in triplicate. The day after cells were seeded, the media was changed to low serum media containing 2 μM CellEvent Caspase 3/7 reagent (Life Technologies; C10423) and compounds. The plates were placed in an IncuCyte (Essen Bioscience, Inc.) live cell imager and scanning was started 15-20 mins after. IncuCyte™ ZOOM facilitates live-cell monitoring via customized imaging protocols. Images were taken every 2 h for at least 3 days, using a 10× objective. Phase contrast was used to measure cell confluency/density while green fluorescence was used to measure caspase activity. The images were analyzed using IncuCyte software (Basic Analysis parameters) and a ratio of caspase activity to cell density was determined.

[2] = test system: p53 and p21 in HCT116 colon cancer cell lines; test: Western blot of p53 and p21 in isogenic HCT116 cell lines (FIG. 2A); type: cell-based, Human; settings: isogenic HCT116: wild-type, USP7 null
Method: (§1) In 24-well plates, 0.10-0.15×10^6 (adherent) or 0.5×10^6 (suspension) cells were treated with 15 μM or 2.5 μM compounds, respectively, for 24 h in low serum prior to lysis for Western Blot analysis.

[3] = test system: MDM2 in MCF7 breast cancer cells; test: MDM2 turnover in MCF7 cells with cycloheximide (FIG. 3A); type: cell-based; settings: 15 μM, in the presence of cycloheximide (CHX)
Method: In 24-well plates, 0.15×10^6 MCF-7 cells were treated for a total of 8 h with DMSO or compounds (15 μM). During that 8 h, cycloheximide (CHX) was added for the indicated times prior to harvest.

[4] = test system: p53, p21, MDM2 and E6AP in RKO, RKO-E6, Vibo and SiHA cell lines; test: Western blot in RKO, RKO-E6, Vibo and SiHA cells (FIG. 14A); type: cell-based
Method: as §1

USP47 = target: T2, USP47 (Homo sapiens, UniProt Q96K76); test: Ub-Rho110 DUB assay, Table 2, USP47; type: biochemical
T2 sequence (Q96K76 1-1375): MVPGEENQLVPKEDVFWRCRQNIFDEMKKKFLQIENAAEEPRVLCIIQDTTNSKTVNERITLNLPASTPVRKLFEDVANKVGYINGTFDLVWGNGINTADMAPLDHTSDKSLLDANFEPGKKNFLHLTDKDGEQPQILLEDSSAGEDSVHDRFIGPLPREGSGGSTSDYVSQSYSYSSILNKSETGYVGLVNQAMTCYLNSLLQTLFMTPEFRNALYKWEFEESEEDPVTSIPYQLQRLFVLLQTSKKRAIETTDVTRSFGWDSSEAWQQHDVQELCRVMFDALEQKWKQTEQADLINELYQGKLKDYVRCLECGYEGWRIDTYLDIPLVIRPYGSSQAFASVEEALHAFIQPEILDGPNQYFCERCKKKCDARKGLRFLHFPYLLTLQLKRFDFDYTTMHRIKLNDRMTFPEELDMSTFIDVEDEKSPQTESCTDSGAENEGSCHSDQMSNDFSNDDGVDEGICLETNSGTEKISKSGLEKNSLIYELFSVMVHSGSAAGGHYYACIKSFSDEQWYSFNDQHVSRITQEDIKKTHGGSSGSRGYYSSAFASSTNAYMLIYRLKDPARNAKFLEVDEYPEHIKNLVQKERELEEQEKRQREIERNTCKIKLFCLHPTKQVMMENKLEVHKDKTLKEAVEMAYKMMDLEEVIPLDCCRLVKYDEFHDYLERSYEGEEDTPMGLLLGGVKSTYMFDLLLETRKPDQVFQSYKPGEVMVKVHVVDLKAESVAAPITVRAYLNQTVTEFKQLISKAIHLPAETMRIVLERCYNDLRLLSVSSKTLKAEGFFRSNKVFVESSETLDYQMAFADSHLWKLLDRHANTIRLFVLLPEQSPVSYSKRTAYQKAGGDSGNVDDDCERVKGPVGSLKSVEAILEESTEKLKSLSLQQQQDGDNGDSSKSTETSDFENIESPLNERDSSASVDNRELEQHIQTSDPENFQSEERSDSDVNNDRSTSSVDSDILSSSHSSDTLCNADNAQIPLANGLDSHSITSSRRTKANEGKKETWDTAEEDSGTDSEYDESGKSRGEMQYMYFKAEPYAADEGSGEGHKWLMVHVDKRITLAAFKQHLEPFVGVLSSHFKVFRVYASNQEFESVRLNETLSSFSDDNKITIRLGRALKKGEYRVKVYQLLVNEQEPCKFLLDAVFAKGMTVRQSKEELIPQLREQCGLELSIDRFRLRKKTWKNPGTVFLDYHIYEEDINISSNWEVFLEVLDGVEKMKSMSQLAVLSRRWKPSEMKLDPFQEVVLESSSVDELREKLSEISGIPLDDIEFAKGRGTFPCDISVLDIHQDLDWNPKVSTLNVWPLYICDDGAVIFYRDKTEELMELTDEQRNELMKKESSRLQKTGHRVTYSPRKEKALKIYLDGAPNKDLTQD

CCc1c(-c2ccc3cn(C)nc3c2)cnc(N)c1-c1ccc(O)cc1 [Compound 89, 4-[2-amino-4-ethyl-5-(2-methylindazol-6-yl)-3-pyridyl]phenol]
IC50 (USP5): > 200 µM
cell viability (Incucyte cell proliferation) [1]: not
stabilization of p53 and p21 (western blot) [2]: not
destabilizing effect on MDM2 (western blot) [3]: less active
effect on p53, p21, MDM2 and E6AP (western blot) [4]: stabilize p53, p21, and destabilize MDM2 and E6AP
IC50 (USP47): > 200 µM
